Laboratory results reported in a melting point compilation (Tetko et al.; mined from patent text by program, amines drawn as free bases though some values may be those of a salt).

melting point [°C] | SMILES
238 to 240 | C=C(C)COC1CC2C3CCC4=CC(=O)C=CC4(C)C3(F)C(O)CC2(C)C1(O)C(=O)CCl (centres undefined)
136 | CC(NC(=O)C1CCNCC1)c1ccccc1 (centres undefined)
267 to 268 | c1ccc2c(=Nc3ccncc3)cc3oc4cc(N5CCCCC5)ccc4nc-3c2c1
89 to 91 | N#CSCC(Br)=C(Br)CBr
68 to 69 | CC(=O)C(CCCCCCc1ccc(O)cc1)C(C)=O
93 to 95 | CCOC(=O)C1(O)c2ccccc2S(=O)(=O)N1C(C)(C)C (centres undefined)
165 | CSc1ccc(C(=O)c2cc(-c3ccccc3)c(N3CCOCC3)s2)cc1
92 to 95 | COc1ccc2cc([C@H](C)C(=O)OCCN(CCO[N+](=O)[O-])S(=O)(=O)c3ccc(C)cc3)ccc2c1
233 to 235 | Cn1c2c(c3cccc(F)c31)C(=O)NCCC2
204 to 205 | CCOC(=O)C1=C(C)Nc2cc[nH]c(=O)c2C1c1ccccc1Cl (centres undefined)
123 to 124 | O=C1NC(C(=O)NCCO[N+](=O)[O-])C(Cc2ccccc2)S1 (centres undefined)
111 to 114 | CCC(C(C)=CC(CNC(=O)c1ccc2c(c1)CC(=O)N2)=NO)[N+](=O)[O-] (centres undefined)
84 to 85 | COc1ccc(C(NCC(=O)Nc2c(C(C)C)cccc2C(C)C)c2ccc(OC)cc2)cc1
87.7 | COC(Cn1cncn1)(OC)c1ccc(Cl)cc1Cl
100 | COc1cc(CCc2ccccc2)c(OC)c2c1C(=O)c1ccccc1C2=O
74 to 75 | O=C(O)Cc1cccc(-c2cccc(COC3OC(CO)C(O)C(O)C3O)c2)c1 (centres undefined)
97 to 98 | C=CCC(C)(C)C(NC(=O)c1ccc(Cl)cc1)NC(=NC#N)Nc1cccnc1 (centres undefined)
175 to 176 | CCOC(=O)C(Cc1c[nH]c2cc(Cl)cc(Cl)c12)=NO
70 | O=S(=O)(CC=C1CCCCC1)c1ccccc1
174 to 176 | COc1cc2c(Nc3ccc(Cl)cc3F)ncnc2cc1OCCSC
87 to 88 | COc1cc(C)c(-c2c(C)cncc2C)c(C)c1
197 to 198 | FC(F)(F)c1cccc(Nc2nccc(-c3ccncc3)n2)c1
111 to 116 | CC1(C)Oc2ccsc2C(N)C1O (centres undefined)
34 to 36 | C=CCOc1ccc2oc(C(=O)OCC)cc2c1
74 to 76 | CCCCCCCCCCNC(=O)N(C)O

melting point [°C] | SMILES
220 to 222 | Cc1ccn(-c2ccc(C(=O)N3Cc4cccnc4Oc4ccccc43)c(Cl)c2)n1
296 to 300 | O=C(CC1CCCCC1)Nc1n[nH]c(-c2ccc(F)cc2)c1-c1ccncc1
205 to 207 | COc1nc(NC(=O)NS(=O)(=O)c2ccccc2OCC#N)nn1C
218 to 220 | Cc1cc(-c2nc3cccnn3c2-c2ccnc(NC(=O)NC3CCC(O)CC3)c2)ccc1F (centres undefined)
96 to 98 | Cc1nc(-c2ccc(OCc3cccc(Cl)c3)cc2)no1
88 to 90 | CCCCCCCCCCCCCCOc1cc(OCCCCCCCCCCCCCC)cc(C(=O)N(CC(=O)O)CC(=O)O)c1
109 to 111 | CS(=O)(=O)c1cc(-c2ccccc2)ncn1
234 to 235 | Nc1nc(-c2ccc(F)cc2)c(CCN2CCC(n3nnc4cc(F)ccc43)CC2)s1
143 to 144 | COc1cc2cc(-c3ccccc3F)sc2c(Cl)c1Cl
240 to 242 | NC(=O)c1cccc2c1c1c(OCC(=O)O)ccc(Cl)c1n2Cc1ccccc1
67 to 68 | O=C1C(Cl)=C(c2ccccc2)C(=O)N1c1cccc(Cl)c1
113 to 114 | CSc1noc(-c2ccc(OCCCCOc3ccccc3)cc2)c1C#N
180 | Cc1cc(-c2cc(C(F)(F)F)nc(-n3cnc(-c4cccc(S(N)(=O)=O)c4)c3)n2)ccc1C(F)(F)F
126 | N#Cc1cccc(C(=O)c2ccc(S)cc2)c1
85 to 86 | O=C(Cl)/C=C/c1cccc(Br)c1
116 to 118 | Nc1c(Br)cc(Br)n2nc(SCc3ccccc3)nc12
239 to 243 | Fc1ccc(Nc2ncnc3cnc(NC4CCNCC4)nc23)cc1Cl
172 to 174 | COC1CC(CNC(=O)Nc2ccc([N+](=O)[O-])cc2)C(OC)O1 (centres undefined)
268 | Cc1csc2c1c(-c1ccccc1Cl)nc(=O)n2C
209 to 210 | NC(=S)NC[C@H]1CN(c2ccc(N3CCN(C(=O)CO)CC3)c(F)c2)C(=O)O1
217 to 218 | CCc1cc2c(-c3ccccc3Cl)c(NC(=O)Nc3ccc(F)cc3F)cnc2s1
68 to 70 | Cc1occc1S(=O)(=O)C(C)(Cc1ccccc1)C(=O)NO (centres undefined)
156 to 159 | CN(C)Cc1c[nH]c2ccc(CCS(=O)(=O)N(C)C)cc12
188 to 190 | CCOc1cc(C(=O)OC)nc2cc(OC)c3ncccc3c12
214 to 216 | O=C(C=Cc1ccc(C(=O)O)cn1)NCCCCN1CCN(C(c2ccccc2)c2ccccc2)CC1

melting point [°C] | SMILES
249 | Cc1ccc(-c2nc(N)ncc2-c2ccc(=O)[nH]n2)cc1
86 | CC1(C)[C@@H]2CC3[C@H](C(=O)O)[C@@]3(C)C[C@@H]21 (some centres undefined)
168 to 170 | CCC12CCC(=O)CC1CCc1cc(O)ccc12 (centres undefined)
145 to 146 | O=C(CCCCc1ccc2c(c1)OCO2)NC1CCCCC1
139 to 141 | Oc1cc2c(cc1O)OCC(c1cccc(C(F)(F)F)c1)C2 (centres undefined)
68 | Cc1ccc(C(=O)C=Cc2ccccc2)c(C)c1
166 | CSC(=N)Nc1ccc(Cl)c(Cl)c1
112 to 114 | CC(C)(C)OC(=O)N1Cc2c(Cl)sc(Cl)c2C1
93 to 95 | CN(C)c1ccc(NC(=O)C2C(=O)C3CC[C@](C)(C2=O)C3(C)C)cc1 (some centres undefined)
73 to 74 | CCCCCCCCOc1ccc(O)c2ccccc12
118 to 120 | COc1cccc(NC(=O)C(C)Oc2ccc(Oc3ccc(C#N)cc3)cc2)c1 (centres undefined)
128 to 130 | CCCC1CCC(C)C(CCC2CC(O)CC(=O)O2)C1COC(=O)C(C)(C)CC (centres undefined)
233 | O=C(O)C1=C(SCc2ccccc2)CCC1
136 to 140 | CNC1=NN(C(=O)c2ccccc2F)C(C)(C)S1
165 to 168 | CN1CCCC1=NC(=O)Nc1c(Br)cc(Br)cc1Br
123 to 125 | COS(=O)c1cc(C(=O)CBr)ccc1C (centres undefined)
214 to 216 | O=c1[nH]c(=O)n(C2OC(CO)C(O)C2F)cc1Br (centres undefined)
155 | CC1=C(OC(=O)C(C)(C)C)C2=C(O)N(I)CN(OC(=O)C(C)(C)C)C2=N1
120 to 121 | CCOc1nn(-c2ccc(C(F)(F)F)cn2)cc1CCCOc1cccc(OC(C)(C)C(=O)O)c1
116 to 118 | O=S(=O)(Cl)c1nc2ccccn2n1
190 to 192 | Cc1nc2cc(C(F)(F)F)ccc2n1N
159 | Cn1cncc1C(N)(c1ccc(Cl)cc1)c1ccc2c(c1)c(-c1cccc(Cl)c1)nc1nnnn12 (centres undefined)
151 to 152 | COc1ccc(C2=C(/C=C/C(=O)Oc3ccc([N+](=O)[O-])cc3)CCc3cc(OC)ccc32)cc1
112 to 113 | Cc1nc2ccccn2c(=O)c1CCN1CCN(c2cccc(Cl)c2)CC1
130 to 132 | COc1cc2c(c3c1OC(C)(C)C3)C(c1cccc(NC(=O)c3ccc(Cl)nc3Cl)c1)=NC(C)(C)C2

melting point [°C] | SMILES
275 | COC(=O)C1=C(C)NC2=C(C(=O)OC2)C1c1cccc2nc(-c3ccccc3)sc12 (centres undefined)
188 to 189 | Cc1cc([C@@H](O)[C@@H](C)N2CCC(O)(c3ccc(F)cc3)CC2)ccc1O[Si](C(C)C)(C(C)C)C(C)C (relative stereo)
121 to 122 | CCN(CC)C(=O)c1ccc2ccccc2c1-c1ccccc1
101 | C#Cc1ccc(C(O)(Cn2cncn2)C(C)(C)C)cc1 (centres undefined)
151 | CC(C)Nc1c(-c2cc(F)cc(F)c2F)c(Cl)nc2ncnn12
143 | COc1ccc2c(c1)C(C(=O)N(Cc1ccc(CO)cc1)c1ccc(C(C)C)cc1)CCC2 (centres undefined)
151 to 152 | Cc1c(CNCC(C)(C)O)[nH]c2c(C)c(NC(=O)c3ccc(OC[C@@H]4CCCO4)cc3F)ccc12
112 to 114 | COC(=O)CCC(=NOCc1ccc(OCc2nc(-c3ccccc3)oc2C)c(OC)c1)c1ccccc1
49 to 50 | N#CSc1c(C(F)(F)F)nn(-c2c(Cl)cc(C(F)(F)F)cc2Cl)c1N
70.5 to 71 | CCOC(=O)c1cc(C(C)C)n(C)n1
110 to 112 | COc1ccc(CNn2nnc3c(Cl)ncnc32)cc1
128 to 130 | OC(CCCN1CCC(O)(c2ccc(Cl)cc2)CC1)c1ccc(F)cc1 (centres undefined)
90 to 93 | Cc1ccc(NC(=O)c2cccc(C(F)(F)F)c2)cc1-c1ccc2scnc2c1
130 to 132 | COc1ccc2cc(-c3cnccn3)ccc2n1
132 to 134 | CC(C)(C)c1cc(-n2nc3ccc(Sc4ccccc4)cc3n2)c(O)c(C(C)(C)C)c1
94 to 96 | NCCCC(O)c1ccccc1 (centres undefined)
228 to 230 | CNc1nc(-c2ccncc2)n[nH]1
285 to 286 | NS(=O)(=O)c1cc2cc(-c3nc(C(F)(F)F)c[nH]3)ccc2s1
131 to 133 | O=C(c1ccc(O)c(Cl)c1Cl)c1ccnn1Cc1ccccc1
99 to 100 | CCOC(=O)CNC(=O)Oc1c(CC)n(C)ccc1=O
145 to 147 | CC(C)(O)c1ccc(CNC(=O)c2cccnc2Oc2cccc3c2CCC3=O)cc1
185 to 186 | COc1ccc(Cn2nnnc2C(=O)Nc2cc(C(F)(F)F)cc(NC(=O)c3nnnn3Cc3ccc(OC)cc3)c2Cl)cc1

SMILES | melting point [°C]
CC12CCC(O)CC1CCC1C2CCC2(C)C(C(=O)CSc3ccncc3)CCC12 (centres undefined) | 154 to 156
CNc1ccc(C#N)c(F)c1 | 110 to 112
COC(=O)c1ccc(CC(C)NCC(O)c2ccc(O)c(CO)c2)cc1C (centres undefined) | 82 to 85
Cc1cccc(C(=O)c2ccccc2F)c1N | 65.5 to 67.5
CC1N=C(c2ccccc2F)c2cc(I)ccc2NC1=O (centres undefined) | 211
CC(C)(C)OC(=O)N1C2CCC1CNC2 | 102 to 104
CC(C)(Cc1nc2c(N)nc3ccccc3c2s1)OC(N)=O | 222 to 223
